Converted amounts (≈) assume the structure as drawn.
How the values were obtained:
[1] = tested on: Streptococcus sanguinis KLE 2374; type: cell-based; settings: KLE2374; Streptococcus sanguinis KLE 2374, anaerobic, stool isolate; read-out: Minimum inhibitory concentration (MIC)
[2] = tested on: Borreliella burgdorferi 297; settings: Borreliella burgdorferi, 297, read-out: Minimum inhibitory concentration (MIC)
[3] = tested on: Clostridium tertium KLE 2303; type: cell-based; settings: KLE2303; Clostridium tertium KLE 2303, anaerobic, stool isolate; read-out: Minimum inhibitory concentration (MIC)
[4] = tested on: Borrelia garinii; settings: Borreliella garinii, read-out: Minimum inhibitory concentration (MIC)
[5] = tested on: Escherichia coli MG1655; type: cell-based; settings: read-out: Minimum inhibitory concentration (MIC)
[6] = tested on: B. burgdorferi N40; experiment: Mouse infection model (IP injection, oral gavage); settings: for Culture positive (%): C3H, 5 days, whole ear culture
[7] = tested on: Enterococcus faecalis KLE 2341; type: cell-based; settings: KLE2341; Enterococcus faecalis KLE 2341, anaerobic, stool isolate; read-out: Minimum inhibitory concentration (MIC)
[8] = tested on: Bacteroides fragilis ATCC 25285; type: cell-based; settings: ATCC25285; Bacteroides fragilis ATCC 25285, anaerobic; read-out: Minimum inhibitory concentration (MIC)
[9] = tested on: Pseudomonas aeruginosa PAO1; type: cell-based; settings: Pseudomonas aeruginosa PAO1; read-out: Minimum inhibitory concentration (MIC)
[10] = tested on: Bacteroides vulgatus KLE 2381; type: cell-based; settings: Phocaeicola vulgatus, KLE2381; Bacteroides vulgatus KLE 2381, anaerobic, stool isolate; read-out: Minimum inhibitory concentration (MIC)
[11] = tested on: Bacteroides xylanisolvens KLE 2305; type: cell-based; settings: KLE2305; Bacteroides xylanisolvens KLE 2305, anaerobic, stool isolate; read-out: Minimum inhibitory concentration (MIC)
[12] = tested on: Staphylococcus aureus HG003; type: cell-based; settings: Staphylococcus aureus HG003; read-out: Minimum inhibitory concentration (MIC)
[13] = tested on: B. burgdorferi overexpressing bmpD (Bb1286+pJSB275m_bmpD); experiment: MIC of B. burgdorferi overexpressing bmpD; type: cell-based; settings: normalized to wild-type B. burgdorferi, IPTG-independent
[14] = tested on: B. burgdorferi N40; experiment: Bait experiment in infected mice; type: in vivo, C3H mice
Procedure: Mice were infected with B. burgdorferi.
To prepare the mouse bait, 2 g of Bait formulation 3 (Food source), 0.5 g freshly ground peanut butter (Whole foods), 35 μl of green food coloring mix (Whole foods) were added into a 60 mm Petri dish. Boiling water (4 mL) was added and mixed with a spatula. The mixture was then dispensed into wells of a 96 well plate with a spatula such that about ⅔rd of the well was full. Antibiotics or vehicle were added at appropriate volume and mixed with a pipette tip. Added volume was kept below 60 μL per well. The bait was allowed to air dry/solidify for a few hours and the prepared baits were stored at 4° C. until use.
To ensure that the bait would be consumed, mice were housed individually with their mouse chow withheld during treatment. The doses used in mice were matched to the pharmacokinetic profile of humans given ceftriaxone 1 g every 12 hours (Sai Life Sciences Ltd, India) and doxycycline 100 mg every 12 hours.
Skin was used for liquid culture, and RNA extraction. All other tissues were used for RNA extraction. The growth of B. burgdorferi in 10 day liquid cultures was detected by dark field microscopy with a 100× objective.

[15] = 156 mg/kg, IP injection, twice a day for 5 days
[16] = 100 mg/kg, bait once a day for 5 days

SMILES | MIC [1] | MIC [2] | MIC [3] | MIC [4] | MIC [5] | MIC [7] | MIC [8] | MIC [9] | MIC [10] | MIC [11] | MIC [12] | other results
CC1(C)S[C@@H]2[C@H](NC(=O)[C@H](N)c3ccc(O)cc3)C(=O)N2[C@H]1C(=O)O [Amoxicillin] | 2 mg/L (≈ 5.47 µM) | 0.25 mg/L (≈ 0.684 µM) | 32 mg/L (≈ 87.6 µM) | 0.12 mg/L (≈ 0.328 µM) | 16 mg/L (≈ 43.8 µM) | 0.5 mg/L (≈ 1.37 µM) | 16 mg/L (≈ 43.8 µM) | > 128 mg/L | 128 mg/L (≈ 350 µM) | 32 mg/L (≈ 87.6 µM) | 1 mg/L (≈ 2.74 µM) | Culture positive (%) ([6]; oral gavage, daily dose 200 mg/kg/day): 0%
CO/N=C(\C(=O)N[C@@H]1C(=O)N2C(C(=O)O)=C(CSc3nc(=O)c(=O)[nH]n3C)CS[C@H]12)c1csc(N)n1 [Ceftriaxone] | 0.12 mg/L (≈ 0.216 µM) | 0.01 mg/L (≈ 0.018 µM) | 1 mg/L (≈ 1.8 µM) | 0.01 mg/L (≈ 0.018 µM) | 0.06 mg/L (≈ 0.108 µM) | > 128 mg/L | 2 mg/L (≈ 3.61 µM) | 64 mg/L (≈ 115 µM) | 128 mg/L (≈ 231 µM) | 64 mg/L (≈ 115 µM) | 8 mg/L (≈ 14.4 µM) | Change of MIC on overexpression of bmpD in B. burgdorferi [13]: no effect; Change of MIC on overexpression of bmpD in B. burgdorferi ([13]; listed as ceftriaxone): remained unchanged; B. burgdorferi culture (% positive) [6, 15]: 0%; Mean # of B. burgdorferi/10 mg of skin tissue (qPCR) [6, 15]: <1 B. burgdorferi/10 mg of skin t; Culture positive (%) ([6]; intraperitoneal injection, daily dose 312 mg/kg/day): 0%
C[C@H]1c2cccc(O)c2C(=O)C2=C(O)[C@]3(O)C(=O)C(C(N)=O)=C(O)[C@@H](N(C)C)[C@@H]3[C@@H](O)[C@@H]21 [Doxycycline] | 0.25 mg/L (≈ 0.563 µM) | 0.25 mg/L (≈ 0.563 µM) | 0.03 mg/L (≈ 0.0675 µM) | 0.12 mg/L (≈ 0.27 µM) | 2 mg/L (≈ 4.5 µM) | 0.5 mg/L (≈ 1.13 µM) | 0.5 mg/L (≈ 1.13 µM) | 32 mg/L (≈ 72 µM) | 1 mg/L (≈ 2.25 µM) | 0.5 mg/L (≈ 1.13 µM) | 0.12 mg/L (≈ 0.27 µM) | Culture positive (%) ([6]; oral gavage, daily dose 100 mg/kg/day): 0%; B. burgdorferi culture (% positive) [14, 16]: 0%; Mean # of B. burgdorferi/10 mg of skin tissue (qPCR) [14, 16]: <1 B. burgdorferi/10 mg of skin t; Culture positive (%) ([14]; C3H, bait, daily dose 200 mg/kg/day, 5 days, whole ear culture): 0%
